Data taken from ChEMBL document CHEMBL1201862, “PubChem BioAssay data set” (2004).
Active and inactive are the calls of the source. No stated cut-off is given here; in the data, actives have a measured IC50 and inactives only a lower limit.

How the values were obtained:
Format in all cases: functional
[1] = target: T1, Sentrin-specific protease 7 (Homo sapiens, UniProt Q9BQF6);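 further: Luminescence-based dose-response confirmation of ultra-high-throughput screening hits, measuring inhibition of SENP7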
T1 sequence (Q9BQF6 whole entry): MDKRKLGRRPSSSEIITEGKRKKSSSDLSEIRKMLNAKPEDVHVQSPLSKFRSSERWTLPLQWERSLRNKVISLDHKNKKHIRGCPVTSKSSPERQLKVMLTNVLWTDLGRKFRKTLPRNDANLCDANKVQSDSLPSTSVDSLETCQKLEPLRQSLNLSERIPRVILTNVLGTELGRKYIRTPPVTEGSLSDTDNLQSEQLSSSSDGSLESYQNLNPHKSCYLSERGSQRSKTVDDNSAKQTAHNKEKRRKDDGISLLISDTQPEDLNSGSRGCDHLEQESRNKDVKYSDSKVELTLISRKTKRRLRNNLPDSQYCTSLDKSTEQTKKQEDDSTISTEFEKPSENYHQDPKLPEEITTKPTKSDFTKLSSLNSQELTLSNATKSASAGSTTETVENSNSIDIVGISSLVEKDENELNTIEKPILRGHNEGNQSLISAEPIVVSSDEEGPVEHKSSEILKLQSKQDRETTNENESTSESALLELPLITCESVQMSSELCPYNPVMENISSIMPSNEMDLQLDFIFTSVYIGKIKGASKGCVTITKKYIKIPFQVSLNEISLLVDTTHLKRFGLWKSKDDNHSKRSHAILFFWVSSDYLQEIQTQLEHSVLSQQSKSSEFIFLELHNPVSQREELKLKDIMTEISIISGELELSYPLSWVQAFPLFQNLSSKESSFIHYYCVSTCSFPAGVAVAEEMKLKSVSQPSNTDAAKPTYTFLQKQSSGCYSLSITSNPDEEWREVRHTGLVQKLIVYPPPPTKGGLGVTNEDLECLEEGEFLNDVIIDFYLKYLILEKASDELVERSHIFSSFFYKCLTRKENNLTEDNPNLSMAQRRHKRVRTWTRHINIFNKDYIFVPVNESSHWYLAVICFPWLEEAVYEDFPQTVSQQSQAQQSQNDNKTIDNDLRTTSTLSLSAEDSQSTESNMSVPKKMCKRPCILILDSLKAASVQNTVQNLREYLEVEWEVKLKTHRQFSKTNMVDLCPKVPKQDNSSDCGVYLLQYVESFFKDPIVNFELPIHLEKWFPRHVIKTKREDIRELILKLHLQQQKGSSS

[2] = target: T2, Sentrin-specific protease 6 (Homo sapiens, UniProt Q9GZR1);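 further: Luminescence-based dose-response confirmatory assay of SENP6 inhibition, following up an ultra-high-throughput screen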
T2 sequence (Q9GZR1 whole entry): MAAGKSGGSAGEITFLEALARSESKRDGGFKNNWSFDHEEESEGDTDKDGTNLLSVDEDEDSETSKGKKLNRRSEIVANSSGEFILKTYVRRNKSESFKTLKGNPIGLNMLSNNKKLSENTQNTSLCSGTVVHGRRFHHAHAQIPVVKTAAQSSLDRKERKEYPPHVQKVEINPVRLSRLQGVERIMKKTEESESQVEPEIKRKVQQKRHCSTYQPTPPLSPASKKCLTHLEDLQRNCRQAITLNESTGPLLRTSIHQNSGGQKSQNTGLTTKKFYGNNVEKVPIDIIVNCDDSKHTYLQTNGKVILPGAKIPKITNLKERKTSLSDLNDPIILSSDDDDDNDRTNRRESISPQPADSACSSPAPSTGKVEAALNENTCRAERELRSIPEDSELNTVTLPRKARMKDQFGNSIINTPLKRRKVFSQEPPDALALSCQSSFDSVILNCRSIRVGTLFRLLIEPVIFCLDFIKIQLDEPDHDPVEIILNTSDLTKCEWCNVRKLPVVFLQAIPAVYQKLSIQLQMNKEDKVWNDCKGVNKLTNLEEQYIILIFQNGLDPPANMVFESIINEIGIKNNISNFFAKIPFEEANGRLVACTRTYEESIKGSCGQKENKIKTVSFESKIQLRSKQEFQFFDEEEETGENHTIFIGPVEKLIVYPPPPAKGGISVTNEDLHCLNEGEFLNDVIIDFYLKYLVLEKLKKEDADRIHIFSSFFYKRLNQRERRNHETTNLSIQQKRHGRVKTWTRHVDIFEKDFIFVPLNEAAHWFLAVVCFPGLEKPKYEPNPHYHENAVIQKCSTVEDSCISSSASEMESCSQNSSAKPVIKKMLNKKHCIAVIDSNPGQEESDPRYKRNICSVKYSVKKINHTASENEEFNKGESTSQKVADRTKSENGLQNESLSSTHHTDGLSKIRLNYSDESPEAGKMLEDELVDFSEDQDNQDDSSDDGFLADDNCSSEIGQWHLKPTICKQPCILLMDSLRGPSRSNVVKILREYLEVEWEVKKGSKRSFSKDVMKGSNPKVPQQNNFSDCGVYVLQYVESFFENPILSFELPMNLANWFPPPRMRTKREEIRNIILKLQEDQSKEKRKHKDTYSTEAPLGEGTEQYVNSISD

[3] = target: T3, Sentrin-specific protease 8 (Homo sapiens, UniProt Q96LD8);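 further: luminescence read-out of SENP8 inhibition, dose-response confirmation following an ultra-high-throughput screen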
T3 sequence (Q96LD8 whole entry): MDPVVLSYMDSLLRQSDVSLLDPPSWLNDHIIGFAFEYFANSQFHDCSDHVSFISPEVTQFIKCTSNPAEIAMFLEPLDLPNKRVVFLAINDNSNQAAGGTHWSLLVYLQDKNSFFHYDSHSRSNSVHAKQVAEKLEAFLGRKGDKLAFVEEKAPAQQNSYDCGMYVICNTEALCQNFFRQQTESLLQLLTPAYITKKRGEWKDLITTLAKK

Caspase-3 = target: T4, Caspase-3 (Homo sapiens, UniProt P42574);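 further: Dose-response selectivity test against caspase-3 for candidate inhibitors of sentrin-specific proteases (SENPs)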
T4 sequence (P42574 whole entry): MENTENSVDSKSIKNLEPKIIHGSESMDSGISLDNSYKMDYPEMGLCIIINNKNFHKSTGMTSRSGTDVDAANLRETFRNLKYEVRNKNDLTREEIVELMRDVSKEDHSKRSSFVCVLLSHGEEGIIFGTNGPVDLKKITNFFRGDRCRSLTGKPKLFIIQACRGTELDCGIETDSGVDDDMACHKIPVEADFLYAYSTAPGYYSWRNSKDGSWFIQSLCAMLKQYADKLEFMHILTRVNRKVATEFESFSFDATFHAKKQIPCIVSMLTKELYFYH

SMILES | IC50 [1] | IC50 [2] | IC50 [3] | IC50 (Caspase-3)
Oc1ccc(/N=C/c2ccc(OCc3ccccc3)cc2)cc1 | 14.6 µM (active) | 16.4 µM (active) | 24.1 µM (active) | 14.3 µM (active)
Nc1c(N2CCCC2)cc(Cl)c2nonc12 | 4.09 µM (active) | 3.02 µM (active) | 4.09 µM (active) | 9.05 µM (active)
O=C(NNc1cc(N2CCOCC2)nc(N2CCOCC2)n1)c1ccc([N+](=O)[O-])cc1 | 6.14 µM (active) | 6.72 µM (active) | 6.99 µM (active) | 32.4 µM (active)
